Measured values as given in paper PMC11219936, “Development of radioiodine-labeled mequitazine for evaluation of hepatic CYP2D activity” (Frontiers in Pharmacology, 2024).

How the values were obtained:
[1] = system: ^125I-BMQ-metabolizing CYP isoenzymes (pooled MLMs); assay: Inhibition of ^125I-BMQ metabolism by specific CYP inhibitors and mequitazine in pooled MLMs; conditions: for percentage of metabolites produced from ^125I-BMQ: 37°C, 15 min; for inhibition at 15 min, 10 µM: mouse, pooled mouse liver microsomes, pH 7.4, probe ^125I-BMQ
Experimental: These specific inhibitors were used to identify the CYPs involved in the biotransformation of ^125I-BMQ. The inhibitors and mequitazine (self-inhibitor) were dissolved at a concentration of 10 μM (0.8% [v/v] final concentration DMSO).
Samples were incubated at 37°C for 15 min with gentle shaking, and the reaction was stopped by addition of 100 µL of ethanol and centrifugation at 18,000 g for 5 min. The final supernatant was analyzed by TLC using methanol/acetic acid at a 100:1 ratio. The percentages of ^125I-BMQ metabolites in each sample were then calculated (n = 3).

[2] = system: CYP (pooled mouse liver microsomes, MLMs); assay: NADPH-mediated metabolism of ^125I-BMQ in pooled mouse liver microsomes, TLC analysis; format: in vitro ADME; conditions: 37°C, increase with reaction time
Experimental: Animal studies were approved by the Animal Care Committee at Kanazawa University (AP-173851) and conducted in accordance with international standards for animal welfare and institutional guidelines. For preparation of pooled mouse liver microsomes (MLMs), three 6-week-old male ddY mice (Japan SLC, Tokyo, Japan) were euthanized under anesthesia using isoflurane. The liver of each mouse was removed and weighed. After adding 3 mL of Krebs-Ringer’s phosphate buffer (pH 7.4) per gram of liver, the livers were pooled and homogenized using an ultrasonic homogenizer (SONIFIER250, Branson, MO, United States). The homogenate was centrifuged for 20 min at 9,000 g, and the supernatant was centrifuged for 60 min at 100,500 g. […] The resulting precipitate was obtained as microsomes, and the protein content was determined according to the bicinchoninic acid method ([Smith et al., 1985]). […]
To analyze CYP-mediated metabolism of ^125I-BMQ, nicotinamide adenine dinucleotide phosphate (NADPH) was used as an energy source for CYP. […] The samples were then centrifuged at 18,000 g for 5 min, and the supernatant of each sample was analyzed by thin layer chromatography (TLC). […] After development and complete drying, the TLC plates were cut into 21 fractions, and the radioactivity associated with each fraction was measured using a γ-ray counter (AccuFLEX γ 7000, Aloka, Tokyo, Japan). […]

[3] = Metabolism of ^125I-BMQ in vivo: TLC analysis of radioactive products in bile; set-up: species or system mouse
Experimental: ^125I-BMQ was prepared to a specific radioactivity of 10 MBq/mL by adding saline and injected via tail vein into three mice (2.0 MBq/200 µL/mouse). […] Radioactive products in the bile were analyzed by TLC using chloroform/acetic acid/H2O at a ratio of 60:40:1. Bile was spotted directly onto the TLC plate.

[4] = Biological distribution of ^125I-BMQ in normal mice; format: in vivo, mouse; conditions: tail vein injection
Experimental: ^125I-BMQ was prepared to a specific radioactivity of 185 kBq/mL by adding saline. A total of 20 fasting 6-week-old male ddY mice were injected with ^125I-BMQ into the tail vein (18.5 kBq/100 µL/mouse), and after 2, 10, 30, 60, and 120 min, four mice each were euthanized under isoflurane, and blood, brain, thyroid, lung, heart, liver, gallbladder, stomach, pancreas, spleen, intestine, kidney, and urine tissue were collected. The tissue was weighted and the radioactivity was measured using a γ-ray counter to calculate the injected dose percent (%ID) or injected dose percent per gram of tissue (%ID/g).

[5] = Preliminary study: effect of intraperitoneal paroxetine on hepatobiliary excretion of ^99mTc-PMT, SPECT dynamic imaging; conditions: CYP2D-inhibited mice, probe ^99mTc-PMT
Experimental: SPECT imaging of ^123I-BMQ was performed to visualize the accumulation of radioactive metabolite for the purpose of assessing CYP2D activity. […] In a preliminary study, the effect of intraperitoneal administration of paroxetine on hepatobiliary excretion was investigated.

[6] = NADPH [+], pooled MLMs, inhibitor 10 μM
[7] = mouse bile after iv injection, gallbladder removed, TLC

Compound: C=C[C@H]1C[N@@]2CC[C@H]1C[C@@H]2[C@@H](O)c1ccnc2ccc(OC)cc12 [quinidine]
- percentage of metabolites produced from ^125I-BMQ [1, 6]: 4.47%
- inhibition at 15 min, 10 µM [1]: 80%

Compound: c1ccc2c(c1)Sc1ccccc1N2CC1CN2CCC1CC2 (racemic) [mequitazine, 10-[(3RS)-1-azabicyclo [2.2.2]oct-3-ylmethyl]-10H-phenothiazine]
- percentage of metabolites produced from ^125I-BMQ [1, 6]: 1.34%
- inhibition at 15 min, 10 µM [1]: 94%

Compound: [125I]c1ccc(C[N+]23CCC(CC2)C(CN2c4ccccc4Sc4ccccc42)C3)cc1 (stereo not drawn) [^125I-BMQ, ^125I-4-iodobenzylmequitazine]
- percentage of metabolites ([1]; NADPH [−], pooled MLMs, no inhibitor): 2.64%
- percentage of radioactive metabolite [2]: 3%–25%
- radioactivity in the bile that was radioactive metabolite ([3]; gallbladder removed 60 min after the mice were injected): more than 90%
- ^125I-BMQ (parent) in bile [3, 7]: no ^125I-BMQ was detected
- percentage of metabolites of ^125I-BMQ in bile [3, 7]: > 90%
- Biological distribution, Blood ([4]; 2 min): 1.71 ± 0.40 %ID/g
- Biological distribution, Brain ([4]; 2 min): 0.12 ± 0.02 %ID/g
- Biological distribution, Gall bladder ([4]; 2 min): 4.16 ± 4.04 %ID/g
- Biological distribution, Heart ([4]; 2 min): 0.78 ± 0.14 %ID/g
- Biological distribution, Intestines ([4]; 2 min): 1.52 ± 0.17 %ID/organ
- Biological distribution, Kidney ([4]; 2 min): 8.04 ± 0.39 %ID/g
- Biological distribution, Liver ([4]; 2 min): 10.58 ± 0.30 %ID/g
- Biological distribution, Lung ([4]; 2 min): 0.77 ± 0.12 %ID/g
- Biological distribution, Pancreas ([4]; 2 min): 0.51 ± 0.05 %ID/g
- Biological distribution, Spleen ([4]; 2 min): 0.46 ± 0.11 %ID/g
- Biological distribution, Stomach ([4]; 2 min): 0.14 ± 0.01 %ID/organ
- Biological distribution, Thyroid ([4]; 2 min): 1.19 ± 0.23 %ID/g
- Biological distribution, Urine ([4]; 2 min): 0.10 ± 0.10 %ID/organ
- Biological distribution, Blood ([4]; 10 min): 0.32 ± 0.07 %ID/g
- Biological distribution, Brain ([4]; 10 min): 0.08 ± 0.02 %ID/g
- Biological distribution, Gall bladder ([4]; 10 min): 13.28 ± 14.03 %ID/g
- Biological distribution, Heart ([4]; 10 min): 0.47 ± 0.11 %ID/g
- Biological distribution, Intestines ([4]; 10 min): 3.90 ± 1.55 %ID/organ
- Biological distribution, Kidney ([4]; 10 min): 7.84 ± 0.50 %ID/g
- Biological distribution, Liver ([4]; 10 min): 10.55 ± 0.48 %ID/g
- Biological distribution, Lung ([4]; 10 min): 0.46 ± 0.28 %ID/g
- Biological distribution, Pancreas ([4]; 10 min): 0.41 ± 0.03 %ID/g
- Biological distribution, Spleen ([4]; 10 min): 0.26 ± 0.01 %ID/g
- Biological distribution, Stomach ([4]; 10 min): 1.33 ± 1.08 %ID/organ
- Biological distribution, Thyroid ([4]; 10 min): 0.57 ± 0.15 %ID/g
- Biological distribution, Urine ([4]; 10 min): 0.06 ± 0.07 %ID/organ
- Biological distribution, Blood ([4]; 30 min): 0.30 ± 0.16 %ID/g
- Biological distribution, Brain ([4]; 30 min): 0.14 ± 0.10 %ID/g
- Biological distribution, Gall bladder ([4]; 30 min): 24.43 ± 6.95 %ID/g
- Biological distribution, Heart ([4]; 30 min): 0.52 ± 0.23 %ID/g
- Biological distribution, Intestines ([4]; 30 min): 7.06 ± 1.89 %ID/organ
- Biological distribution, Kidney ([4]; 30 min): 8.70 ± 1.50 %ID/g
- Biological distribution, Liver ([4]; 30 min): 8.45 ± 0.99 %ID/g
- Biological distribution, Lung ([4]; 30 min): 0.40 ± 0.20 %ID/g
- Biological distribution, Pancreas ([4]; 30 min): 0.63 ± 0.25 %ID/g
- Biological distribution, Spleen ([4]; 30 min): 0.24 ± 0.08 %ID/g
- Biological distribution, Stomach ([4]; 30 min): 0.42 ± 0.36 %ID/organ
- Biological distribution, Thyroid ([4]; 30 min): 1.16 ± 0.60 %ID/g
- Biological distribution, Urine ([4]; 30 min): 0.30 ± 0.26 %ID/organ
- Biological distribution, Blood ([4]; 60 min): 0.11 ± 0.01 %ID/g
- Biological distribution, Brain ([4]; 60 min): 0.05 ± 0.01 %ID/g
- Biological distribution, Gall bladder ([4]; 60 min): 23.28 ± 9.55 %ID/g
- Biological distribution, Heart ([4]; 60 min): 1.00 ± 0.13 %ID/g
- Biological distribution, Intestines ([4]; 60 min): 14.26 ± 1.26 %ID/organ
- Biological distribution, Kidney ([4]; 60 min): 18.07 ± 2.42 %ID/g
- Biological distribution, Liver ([4]; 60 min): 6.61 ± 0.90 %ID/g
- Biological distribution, Lung ([4]; 60 min): 0.55 ± 0.13 %ID/g
- Biological distribution, Pancreas ([4]; 60 min): 0.84 ± 0.29 %ID/g
- Biological distribution, Spleen ([4]; 60 min): 0.86 ± 0.12 %ID/g
- Biological distribution, Stomach ([4]; 60 min): 0.63 ± 0.41 %ID/organ
- Biological distribution, Thyroid ([4]; 60 min): 1.03 ± 0.21 %ID/g
- Biological distribution, Urine ([4]; 60 min): 0.47 ± 0.55 %ID/organ
- Biological distribution, Blood ([4]; 120 min): 0.09 ± 0.01 %ID/g
- Biological distribution, Brain ([4]; 120 min): 0.05 ± 0.01 %ID/g
- Biological distribution, Gall bladder ([4]; 120 min): 28.93 ± 14.65 %ID/g
- Biological distribution, Heart ([4]; 120 min): 0.92 ± 0.11 %ID/g
- Biological distribution, Intestines ([4]; 120 min): 16.36 ± 1.01 %ID/organ
- Biological distribution, Kidney ([4]; 120 min): 16.10 ± 2.91 %ID/g
- Biological distribution, Liver ([4]; 120 min): 6.02 ± 1.23 %ID/g
- Biological distribution, Lung ([4]; 120 min): 0.36 ± 0.06 %ID/g
- Biological distribution, Pancreas ([4]; 120 min): 0.73 ± 0.26 %ID/g
- Biological distribution, Spleen ([4]; 120 min): 0.83 ± 0.32 %ID/g
- Biological distribution, Stomach ([4]; 120 min): 0.44 ± 0.07 %ID/organ
- Biological distribution, Thyroid ([4]; 120 min): 1.14 ± 0.08 %ID/g
- Biological distribution, Urine ([4]; 120 min): 0.11 ± 0.01 %ID/organ

Compound: Fc1ccc([C@@H]2CCNC[C@H]2COc2ccc3c(c2)OCO3)cc1 [paroxetine]
- percentage of metabolites produced from ^125I-BMQ [1, 6]: 12.5%
- inhibition at 15 min, 10 µM [1]: 42%
- effect on biliary excretory function [5]: did not affect the biliary excretory function itself

Compound: CC(=O)N1CCN(c2ccc(OCC3COC(Cn4ccnc4)(c4ccc(Cl)cc4Cl)O3)cc2)CC1 (stereo not drawn) [ketoconazole]
- percentage of ^125I-BMQ compared with NADPH [+] [1, 6]: slightly lower, but not significantly
